Like-named read-outs stand apart in the source and are kept apart here.
Tests used:
awake mice = experiment: Tail-cuff systolic blood pressure in awake mice; format: in vivo, mouse; settings: for tail systolic blood pressure after intravenous injection: awake wild type mice, 0.012 ml/g body weight i.v.
Protocol: The mouse was placed in a restrainer for this procedure. All mice were handled briefly and gently to inject a tetrameric hemoglobin solution into a lateral tail vein. Before injection, the tail was warmed under an infra-red heat lamp for 5 minutes to enable access to the vein. The injection volume was 0.012 ml/g body weight for each mouse. Infusion was done during the course of one minute.
With the use of volumetrically calibrated flowmeters (Cole-Parmer, Vernon Hills, Ill.), nitric oxide gas (800 ppm in nitrogen; INO Therapeutics, Clinton, […], Clinton, N.J.). The nitric oxide, nitrogen dioxide and oxygen (21%) levels were continuously monitored (INOvent delivery system, Datex-Ohmeda, Madison, Wis.).
(§1) The effects of breathing nitric oxide on systolic tail blood pressure after the infusion of murine tetrameric hemoglobin solution were monitored every 10 minutes for the 1st hour and every 20 minutes for the rest of the experiments. Blood hemoglobin and methemoglobin levels were measured every 15 minutes in the nitric oxide pretreatment group, wherein all mice breathed nitric oxide at 80 ppm for 1 hour before infusion. Hemoglobin and methemoglobin levels in whole blood and plasma were measured in additional mice after the intravenous infusion of tetrameric hemoglobin solution at 10 minutes and 60 minutes while breathing nitric oxide at 8 ppm or 80 ppm throughout the experiment.
Systolic blood pressure was measured with a non-invasive tail-cuff machine (XBP 1000, Kent Scientific, Torrington, Conn.) in wild type mice and NOS3^−/− mice. Mice were first subjected to one or two practice sessions to acclimate them to the device. The mouse was placed in a restrainer for a short period of time (<1 minute to start), then kept in the restrainer for longer times to acclimate to the device. The degree of acclimatization was judged by the absence of agitation in the device. After a few days of practice sessions, mice were restrained in a commercial mouse restraint device (Kent Scientific, Torrington, Conn.). […]
All values are expressed as mean±SEM. Data were analyzed using ANOVA. The difference in hemodynamic parameters before and after infusion of murine tetrameric hemoglobin or nitric oxide inhalation was examined by a paired t-test for repeated measurements. P values less than 0.05 were considered significant (as indicated by a * in the figures).

plasma hemoglobin [1] = target: T1, plasma hemoglobin (Mus musculus, UniProt P01942+P02088); format: in vivo
T1 construct: The blood was frozen and thawed three times and then centrifuged; from tissue; host or cells: whole blood of wild type C57BL/6 mice (hemolysate, filtered, dialysed, concentrated)
T1 sequence (P01942 2-142 limits assumed): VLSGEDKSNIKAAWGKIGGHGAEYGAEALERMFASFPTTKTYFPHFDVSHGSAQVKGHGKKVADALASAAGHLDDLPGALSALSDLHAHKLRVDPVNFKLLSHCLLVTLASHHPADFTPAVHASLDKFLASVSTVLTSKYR
T1 sequence (P02088 2-147 limits assumed): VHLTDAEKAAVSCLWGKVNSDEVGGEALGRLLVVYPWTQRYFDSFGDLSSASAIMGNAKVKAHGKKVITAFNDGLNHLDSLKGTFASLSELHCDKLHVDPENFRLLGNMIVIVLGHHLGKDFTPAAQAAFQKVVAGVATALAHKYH
Protocol: Hemoglobin and methemoglobin concentration in whole blood and plasma were determined by the cyanomethemoglobin method measuring OD at 540 nm and 630 nm with a Spectrophotometer-Biomate 3 (Thermoelectron Corporation, Waltham, Mass.).
as §1

plasma hemoglobin [2] = target: plasma hemoglobin (Bos taurus, UniProt P01966+P02070); experiment: Plasma methemoglobin concentration in awake lambs; format: in vivo, lamb
plasma hemoglobin (Bos taurus, UniProt P01966+P02070), sequence (P01966 2-142 limits assumed): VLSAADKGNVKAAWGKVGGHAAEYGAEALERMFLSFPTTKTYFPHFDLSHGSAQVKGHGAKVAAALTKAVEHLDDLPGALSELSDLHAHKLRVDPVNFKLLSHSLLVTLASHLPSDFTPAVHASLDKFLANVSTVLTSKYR
plasma hemoglobin (Bos taurus, UniProt P01966+P02070), sequence (P02070 whole entry): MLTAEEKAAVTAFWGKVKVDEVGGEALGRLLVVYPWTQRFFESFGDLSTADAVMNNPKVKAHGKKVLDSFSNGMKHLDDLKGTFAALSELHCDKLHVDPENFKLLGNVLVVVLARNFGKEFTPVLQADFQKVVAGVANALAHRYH
Text: Lambs were briefly anesthetized, given a tracheostomy, the internal jugular vein was percutaneously catheterized and a flow directed Swan Ganz catheter passed into the pulmonary artery to permit measurements of central hemodynamics and cardiac output by thermaldilution. An arterial line was placed in the carotid artery. Animals were allowed several hours to awaken from anesthesia and were studied awake and restrained in a harness. […] Systemic vascular resistance (SVR) and pulmonary vascular resistance (PVR) were calculated using standard formulae as follows: [SVR ([…])=(MAP−CVP)/CO*79.96]; and [PVR ([…])=(PAP−PCWP)/CI*79.96].
Methemoglobin concentration in plasma was measured before and after breathing 80 ppm nitric oxide for one hour (and before and after infusion of autologous whole blood or HBOC-201). […]
Plasma methemoglobin concentration was measured before and after breathing nitric oxide at various concentrations (and before and after infusion of autologous whole blood or HBOC-201).

awake lambs = format: in vivo, lamb
Text: Lambs were briefly anesthetized, given a tracheostomy, the internal jugular vein was percutaneously catheterized and a flow directed Swan Ganz catheter passed into the pulmonary artery to permit measurements of central hemodynamics and cardiac output by thermaldilution. An arterial line was placed in the carotid artery. Animals were allowed several hours to awaken from anesthesia and were studied awake and restrained in a harness. Three groups of lambs were studied: (1) “autologous whole blood” animals donated autologous blood, which was stored with heparin anti-coagulation at 4° C.—two days later they received an infusion of their 37° C. autologous whole blood (12 ml/kg over 20 minutes) while breathing at FiO2=0.3 (n=3); (2) “HBOC-201” animals received an infusion of HBOC-201 (12 ml/kg over 20 minutes) while breathing at FiO2=0.3 (n=3); and (3) “HBOC-201 after iNO” animals inhaled 80 ppm nitric oxide at FiO2=0.3 for one hour before receiving an infusion of HBOC-201 (12 ml/kg over 20 minutes) (n=5). Systemic vascular resistance (SVR) and pulmonary vascular resistance (PVR) were calculated using standard formulae as follows: [SVR ([…])=(MAP−CVP)/CO*79.96]; and [PVR ([…])=(PAP−PCWP)/CI*79.96].
(1) “Autologous whole blood” animals received an infusion of 37° C. autologous whole blood (12 ml/kg over 20 minutes) while breathing at FiO2=0.3 (n=3); (2) “HBOC-201” animals received an infusion of 37° C. HBOC-201 (12 ml/kg over 20 minutes) while breathing at FiO2=0.3 (n=3); and (3) “HBOC-201 after high and low dose iNO” animals inhaled 80 ppm nitric oxide at FiO2=0.3 for one hour before receiving an infusion of HBOC-201 (12 ml/kg over 20 minutes), which was followed by breathing 5 ppm nitric oxide at FiO2=0.3 for two hours, which was followed by breathing at FiO2=0.3 (and discontinued inhalation of nitric oxide gas) for another one hour (n=4).

[3] = tested on: anesthetized wild type and NOS3−/− mice; experiment: Invasive hemodynamic measurements in anesthetized mice; format: in vivo, mouse; settings: for CO (cardiac output) / CVP (central venous pressure) / Ea (arterial elastance) / HR (heart rate) / LVEDP (left ventricular end-diastolic pressure) / LVESP (left ventricular end-systolic pressure) / SVR (systemic vascular resistance) / Tau (time constant of isovolumic relaxation) / dP/dtmax (maximum rate of developed left ventricular pressure) / dP/dtmin (minimum rate of developed left ventricular pressure): mean ± SEM
Protocol: To explore the mechanisms by which infusion of tetrameric hemoglobin causes systemic hypertension in awake wild type mice, invasive hemodynamic measurements were performed in anesthetized wild type and NOS3^−/− mice before and three minutes after infusion of murine tetrameric hemoglobin or whole murine blood as a control. Mice were anesthetized with an intraperitoneal injection of ketamine (100 mg/kg) and xylazine (5 mg/kg). Muscle relaxation was obtained by adding pancuronium (5 μg/g) after tracheal intubation. […] Two saline-filled PE-10 catheters were inserted separately via the jugular veins; one for monitoring central venous pressure (CVP) and the other for infusion of whole blood or tetrameric hemoglobin solution. A Millar pressure-volume catheter was inserted retrograde via the right carotid artery into the left ventricle (1.4F, model SPR839, Millar Instruments Inc., Houston, Tex.). After obtaining stable hemodynamic measurements, whole blood (1.44 g Hb/kg) or murine tetrameric Hb solution (0.48 g/kg) was infused through the jugular vein, at a rate of 100 μl/min for 3 min. PVAN software was used to analyze left ventricular pressure-volume loop data (Conductance Technologies Inc., San Antonio, Tex.).

[4] = lambs breathing 80 ppm nitric oxide for one hour before HBOC-201, terminated immediately before infusion
[5] = lambs: 80 ppm nitric oxide one hour before HBOC-201, then 5 ppm after the infusion
[6] = NOS3−/− mice breathing air, three minutes after infusion
[7] = WT mice breathing air, three minutes after infusion
[8] = WT ± iNO: WT mice breathing 80 ppm NO in air for 15 min, NO discontinued, then infusion

Compound: O=NO [sodium nitrite, Sodium nitrite]
- systemic hypertension caused by subsequent infusion of murine tetrameric hemoglobin (awake mice; awake mice, 48 nmol sodium nitrite i.v. five minutes before hemoglobin (0.48 g/kg)): blocked the systemic hypertension
- blood pressure before murine tetrameric hemoglobin was infused (awake mice; awake mice, 48 nmol sodium nitrite via tail vein): did not alter blood pressure
- plasma methemoglobin level (plasma hemoglobin [1]; mouse, in vivo): 10±2%

Compound: [N]=O [nitric oxide]
- plasma methemoglobin compared to lambs that received HBOC-201 without nitric oxide (plasma hemoglobin [2]; 80 ppm nitric oxide for one hour before HBOC-201, terminated at infusion): did not result in an increase in plasma methemoglobin
- plasma methemoglobin compared to animals that received HBOC-201 without nitric oxide (plasma hemoglobin [2]; 80 ppm nitric oxide one hour before HBOC-201, then 5 ppm after the infusion): did not result in an increase in plasma methemoglobin
- pulmonary hypertension after inhalation of 5 ppm nitric oxide was abruptly discontinued (awake lambs; lambs administered HBOC-201): rebounded
- increase in mean arterial pressure after HBOC-201 infusion (awake lambs; [4]): blocked the increase
- increase in pulmonary arterial pressure after HBOC-201 infusion (awake lambs; [4]): did not block the increase
- increase in pulmonary vascular resistance after HBOC-201 infusion (awake lambs; [4]): did not block the increase
- increase in systemic vascular resistance after HBOC-201 infusion (awake lambs; [4]): blocked the increase
- increase in mean arterial pressure after HBOC-201 infusion (awake lambs; [5]): blocked the increase
- increase in pulmonary arterial pressure after HBOC-201 infusion (awake lambs; [5]): blocked the increase
- increase in pulmonary vascular resistance after HBOC-201 infusion (awake lambs; [5]): blocked the increase
- increase in systemic vascular resistance after HBOC-201 infusion (awake lambs; [5]): blocked the increase
- hemoglobin-induced elevation in systolic blood pressure (awake mice; wild type mice breathing 80 ppm nitric oxide continuously before and subsequent to infusion of murine tetrameric hemoglobin solution): prevented a hemoglobin-induced elevation in systolic blood pressure
- hemoglobin-induced elevation in systolic blood pressure (awake mice; wild type mice breathing 80 ppm nitric oxide for 15 minutes before infusion, terminated at infusion): prevented a hemoglobin-induced elevation in systolic blood pressure
- hemoglobin-induced elevation in systolic blood pressure (awake mice; wild type mice breathing 80 ppm nitric oxide for one hour before infusion, terminated at infusion): prevented a hemoglobin-induced elevation in systolic blood pressure
- hemoglobin-induced elevation in systolic blood pressure (awake mice; wild type mice breathing 200 ppm nitric oxide for 7 minutes before infusion, terminated at infusion): prevented a hemoglobin-induced elevation in systolic blood pressure
- conversion of plasma hemoglobin to methemoglobin (plasma hemoglobin [1]; wild type mice breathing 80 ppm nitric oxide for one hour before infusion of murine tetrameric hemoglobin solution, terminated at infusion): < 5%
- conversion of plasma hemoglobin to methemoglobin (plasma hemoglobin [1]; wild type mice breathing 80 ppm nitric oxide while given murine tetrameric hemoglobin solution, 10 and 60 minutes after injection): conversion of a significant proportion of plasma hemoglobin to inactive methemoglobin
- increase of LVESP, LVEDP, SVR, Ea and τ induced by murine tetrameric hemoglobin infusion ([3]; wild type mice pretreated with inhaled nitric oxide at 80 ppm for 15 minutes): abolished the increase of LVESP, LVEDP, SVR, Ea, and τ

Compound: Tetrameric Hb: tetrameric hemoglobin solution (4 g/dl) prepared from lysed whole blood of wild type C57BL/6 mice
- tail systolic blood pressure after intravenous injection (awake mice): significant increase in systolic blood pressure
- tail systolic blood pressure after intravenous injection (awake mice; listed as murine tetrameric hemoglobin solution): significant elevation in blood pressure
- systemic blood pressure after infusion (awake mice; solution containing 14.5% methemoglobin): caused systemic hypertension
- CO (cardiac output) [3, 6]: 9 ± 1 mL/min
- CVP (central venous pressure) [3, 6]: 4 ± 0 mmHg
- Ea (arterial elastance) [3, 6]: 8 ± 1 mmHg/μl
- HR (heart rate) [3, 6]: 553 ± 18 bpm
- LVEDP (left ventricular end-diastolic pressure) [3, 6]: 8 ± 2 mmHg
- LVESP (left ventricular end-systolic pressure) [3, 6]: 117 ± 5 mmHg
- SVR (systemic vascular resistance) [3, 6]: 15 ± 2 dynes*sec/cm^2
- Tau (time constant of isovolumic relaxation) [3, 6]: 6 ± 1 ms
- dP/dtmax (maximum rate of developed left ventricular pressure) [3, 6]: 13736 ± 606 mmHg/s
- dP/dtmin (minimum rate of developed left ventricular pressure) [3, 6]: −12290 ± 620 mmHg/s
- CO (cardiac output) [3, 7]: 10 ± 1 mL/min
- CVP (central venous pressure) [3, 7]: 3 ± 0 mmHg
- Ea (arterial elastance) [3, 7]: 9 ± 1 mmHg/μl
- HR (heart rate) [3, 7]: 602 ± 12 bpm
- LVEDP (left ventricular end-diastolic pressure) [3, 7]: 12 ± 1 mmHg
- LVESP (left ventricular end-systolic pressure) [3, 7]: 158 ± 5 mmHg
- SVR (systemic vascular resistance) [3, 7]: 16 ± 1 dynes*sec/cm^2
- Tau (time constant of isovolumic relaxation) [3, 7]: 8 ± 1 ms
- dP/dtmax (maximum rate of developed left ventricular pressure) [3, 7]: 12260 ± 750 mmHg/s
- dP/dtmin (minimum rate of developed left ventricular pressure) [3, 7]: −10110 ± 640 mmHg/s
- CO (cardiac output) [3, 8]: 12 ± 1 mL/min
- CVP (central venous pressure) [3, 8]: 4 ± 0 mmHg
- Ea (arterial elastance) [3, 8]: 5 ± 0 mmHg/μl
- HR (heart rate) [3, 8]: 603 ± 20 bpm
- LVEDP (left ventricular end-diastolic pressure) [3, 8]: 6 ± 1 mmHg
- LVESP (left ventricular end-systolic pressure) [3, 8]: 101 ± 4 mmHg
- SVR (systemic vascular resistance) [3, 8]: 8 ± 1 dynes*sec/cm^2
- Tau (time constant of isovolumic relaxation) [3, 8]: 5 ± 0 ms
- dP/dtmax (maximum rate of developed left ventricular pressure) [3, 8]: 11230 ± 750 mmHg/s
- dP/dtmin (minimum rate of developed left ventricular pressure) [3, 8]: −10650 ± 430 mmHg/s
- effect of infusion on invasive hemodynamic parameters ([3]; anesthetized NOS3−/− mice): did not alter HR, LVESP, LVEDP, CO, dP/dtmax, dP/dtmin, SVR, Ea, τ, or CVP
- effect of infusion on invasive hemodynamic parameters ([3]; anesthetized wild type mice): increased LVESP, LVEDP, SVR, Ea, and τ and decreased CO without affecting dP/dtmax, dP/dtmin, or CVP

Compound: HBOC-201: a chemically cross-linked bovine hemoglobin formulated in a salt solution; Biopure
- mean arterial pressure after infusion (awake lambs; in vivo): increase
- pulmonary arterial pressure after infusion (awake lambs; in vivo): increase
- pulmonary vascular resistance after infusion (awake lambs; in vivo): increase
- systemic vascular resistance after infusion (awake lambs; in vivo): increase
